Data: publication PMC12059162 (Scientific Reports, 2025)

What was measured:
cleaved caspase-3 = assay: Human Apoptosis Array in PANC-1 cells; conditions: PANC-1, 0.5 µM, 72 h
phospho-p53 (S46) = assay: Human Apoptosis Array in PANC-1 cells; conditions: PANC-1, 0.5 µM, 72 h
MIA PaCa-2 cells [1] = assay: alamarBlue cell viability; conditions: Homo sapiens, MIA PaCa-2, 72 h
[2] = cited from earlier work
phospho-p53 (S15) = assay: Human Apoptosis Array in PANC-1 cells; conditions: PANC-1, 0.5 µM, 72 h
phospho-p53 (S392) = assay: Human Apoptosis Array in PANC-1 cells; conditions: PANC-1, 0.5 µM, 72 h
XIAP = assay: Human Apoptosis Array in PANC-1 cells; conditions: PANC-1, 0.5 µM, 72 h
COLO-205 cells = assay: alamarBlue cell viability; conditions: Homo sapiens, COLO 205, 72 h, read-out: Viability (%) after 72-h treatment
in vitro [3] = conditions: human
HSP60 = assay: Human Apoptosis Array in PANC-1 cells; conditions: PANC-1, 0.5 µM, 72 h
PANC-1 cells [4] = assay: xCELLigence SP impedimetric cell viability; conditions: Homo sapiens, PANC-1, 72 h
SMAC = assay: Human Apoptosis Array in PANC-1 cells; conditions: PANC-1, 0.5 µM, 72 h
EBC-1 cells = assay: alamarBlue cell viability; conditions: Homo sapiens, EBC-1, 72 h
PANC-1 cells [5] = assay: Cell cycle analysis (PI, flow cytometry)
TRAIL = assay: qPCR apoptotic gene expression in PANC-1 cells; conditions: PANC-1, 25 µM, any of the time points (3-48 h)
FADD = assay: Human Apoptosis Array in PANC-1 cells; conditions: PANC-1, 0.5 µM, 72 h
p53 = assay: qPCR apoptotic gene expression in PANC-1 cells; conditions: PANC-1, 25 µM, 48 h, normalised to DMSO control
in vitro [6] = conditions: mouse
cIAP-1 = assay: Human Apoptosis Array in PANC-1 cells; conditions: PANC-1, 0.5 µM, 72 h
PANC-1 cells [7] = assay: Annexin-V/7AAD early and late apoptosis flow cytometry; assay type: cell-based, human; conditions: PANC-1, 0.5 µΜ, 72 h
Description: For apoptosis measurements, Annexin-V positive/7AAD (7-Aminoactinomycin D) negative, early apoptotic and Annexin-V/ 7AAD double positive, late apoptotic cells were differentiated using a BD FACSCalibur (BD FACSCalibur, Becton-Dickinson, San Jose, CA, USA) flow cytometer[49],[50]. […] After 24, 48, and 72 h treatment, cells were harvested with 300 µL TrypLE (Sigma Ltd. St. Louis, MO, USA). Fresh cell culture medium was then added to stop the effect of TrypLE and the harvested cells were centrifuged for 5 min (300 g). Then, the supernatant was removed, and cells were resuspended in 300 µL of Annexin binding buffer (Sony Biotechnology, Weybridge, UK). For labelling, 3–3 µL of Annexin-V-FITC (Sony Biotechnology, Weybridge, UK) and 7AAD (Sony Biotechnology, Weybridge, UK) were added, followed by 10 min incubation at room temperature in the dark. For flow cytometric analysis (BD FACSCalibur, Becton–Dickinson, San Jose, CA, USA), a minimum of 10^4 cells/sample was measured. Annexin-V was detected using the FL-1 channel (530/30), and 7AAD was detected using the FL-3 channel (670 LP). In each treatment group, 3 parallel samples were analysed. The results were evaluated using Flowing Software 2.5.1 (Turku Centre of Biotechnology, Turku, Finland).

A2058 cells = assay: alamarBlue cell viability; conditions: Homo sapiens, A2058, 72 h, read-out: Viability (%) after 72-h treatment
MIA PaCa-2 cells [8] = assay: Cell cycle analysis (PI, flow cytometry); conditions: MIA PaCa-2, 0.5 µM, 48 h
caspase-3/7 = assay: CellEvent Caspase-3/7 activity imaging in PANC-1 cells; conditions: PANC-1, 0.5 µM, 72 h, normalised to DMSO control (n = 1)
PANC-1 cells [9] = assay: Holographic microscopy morphometry (HoloMonitor M4); assay type: cell-based, human; conditions: PANC-1, 0.5 µM, 72 h
Description: To follow the morphometric changes, a holographic transmission microscope (HoloMonitor M4; Phase Holographic Imaging AB, Lund, Sweden) was used, which uses a laser to produce 3D images of the cells[51],[52]. This […] imaging technique allows us to monitor cell morphological changes in real-time. First, the cells were seeded at a concentration of 3.5 × 10^5 cells/flask/4000 µL cell culture medium. […] At least 5 images were taken from each culture dish, taking care to assess different fields of view. These images were evaluated using the microscope software (Hstudio M4). We assessed the average area and the average optical thickness of the cells.

[10] = read-out: IC50 values (μM) 72 hours
[11] = read-out: Viability (%) after 72-h treatment

Cc1ccccc1CN1C(=O)C2=C(CCN(Cc3ccccc3)C2)N2CCN=C12 [ONC201, reference compound]
cleaved caspase-3 protein level (cleaved caspase-3): significantly increased
phospho-p53 (S46) protein level (phospho-p53 (S46)): significantly increased
IC50 (MIA PaCa-2 cells [1]; [10]): 1.12 µM
viability at 0.5 µM (MIA PaCa-2 cells [1]; [11]): 77.6 ± 2.3%
viability at 10 µM (MIA PaCa-2 cells [1]; [11]): 44.6 ± 2%
viability at 25 µM (MIA PaCa-2 cells [1]; [11]): 55 ± 1.6%
logP [2]: 2.3
phospho-p53 (S15) protein level (phospho-p53 (S15)): significantly increased
phospho-p53 (S392) protein level (phospho-p53 (S392)): significantly increased
XIAP protein level (XIAP): increase
viability at 0.5 µM (COLO-205 cells): 97 ± 2.5%
viability at 10 µM (COLO-205 cells): 69.7 ± 2.4%
viability at 25 µM (COLO-205 cells): 71 ± 0.7%
viability at 72 h, 0.37 µM (in vitro [3]): 115 ± 1.4%
viability at 72 h, 8.6 µM (in vitro [3]): 88.3 ± 7.4%
viability at 72 h, 25 µM (in vitro [3]): 74.9 ± 8.6%
HSP60 protein level (HSP60): increase
IC50 (PANC-1 cells [4]; [10]): 6.1 µM
viability at 0.5 µM (PANC-1 cells [4]; [11]): 105 ± 5.2%
viability at 10 µM (PANC-1 cells [4]; [11]): 16 ± 2.4%
viability at 25 µM (PANC-1 cells [4]; [11]): 10.2 ± 2.2%
SMAC protein level (SMAC): significantly increased
IC50 (EBC-1 cells; [10]): 5.72 µM
viability at 0.5 µM (EBC-1 cells; [11]): 101 ± 1.6%
viability at 10 µM (EBC-1 cells; [11]): 47.1 ± 2.2%
viability at 25 µM (EBC-1 cells; [11]): 45.5 ± 2%
Effect on cell cycle (PANC-1 cells [5]; PANC-1, 0.5 µM, 48 h): did not have any influence
Increase in cell number in the G2/M phase (PANC-1 cells [5]; PANC-1, 10 and 25 µM, 72 h): 2.1 fold
TRAIL induction (mRNA) (TRAIL): not detected
FADD protein level (FADD): significantly increased
p53 mRNA expression (p53): 3.3 fold
viability at 72 h, 0.5 µM (in vitro [6]): 99.4 ± 1.8%
viability at 72 h, 10 µM (in vitro [6]): 89.2 ± 6.3%
viability at 72 h, 25 µM (in vitro [6]): 89 ± 5.6%
cIAP-1 protein level (cIAP-1): increase
Apoptosis-inducing effect (PANC-1 cells [7]): no apoptosis-inducing effect
viability at 0.5 µM (A2058 cells): 101 ± 1.7%
viability at 10 µM (A2058 cells): 73.7 ± 4.5%
viability at 25 µM (A2058 cells): 62.1 ± 8.7%
Effect on cell cycle (MIA PaCa-2 cells [8]): did not have any influence
Number of caspase-3/7 active cells, increase (caspase-3/7): 6.6 fold
Effect on cell morphology (PANC-1 cells [9]): did not affect cell morphology
